The assay addresses T1, rat NaPi-2b (Rattus norvegicus, UniProt Q9JJ09).
T1 construct: expressed in transfected cells; host or cells: Xenopus oocytes injected with cRNA
T1 sequence (Q9JJ09 1-695): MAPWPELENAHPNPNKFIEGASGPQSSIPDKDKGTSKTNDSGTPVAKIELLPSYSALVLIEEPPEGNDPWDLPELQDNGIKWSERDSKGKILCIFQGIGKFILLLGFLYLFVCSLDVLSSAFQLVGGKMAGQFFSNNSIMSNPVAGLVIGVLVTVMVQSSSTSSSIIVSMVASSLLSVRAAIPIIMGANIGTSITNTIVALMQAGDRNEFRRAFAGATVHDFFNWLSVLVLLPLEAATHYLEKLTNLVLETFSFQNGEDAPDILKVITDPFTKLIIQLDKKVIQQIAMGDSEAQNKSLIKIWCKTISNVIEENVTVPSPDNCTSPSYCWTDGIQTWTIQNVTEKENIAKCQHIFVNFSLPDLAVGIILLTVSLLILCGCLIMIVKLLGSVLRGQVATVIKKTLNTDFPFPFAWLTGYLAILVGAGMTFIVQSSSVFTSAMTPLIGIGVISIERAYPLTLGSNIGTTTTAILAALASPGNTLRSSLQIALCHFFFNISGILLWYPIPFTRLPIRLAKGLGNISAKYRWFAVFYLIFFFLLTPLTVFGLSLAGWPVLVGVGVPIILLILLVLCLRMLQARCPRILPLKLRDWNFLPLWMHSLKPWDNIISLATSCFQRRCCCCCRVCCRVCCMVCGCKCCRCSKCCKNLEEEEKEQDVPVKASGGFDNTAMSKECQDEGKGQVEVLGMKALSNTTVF
In words: Sodium-dependent phosphate uptake of Xenopus oocytes which expressed NaPi-2b (32P). The class given is cell-based. Particulars: for IC50: Xenopus oocytes expressing rat NaPi-2b, 32P radioactive phosphorus, read-out: IC50 (phosphate uptake inhibitory activity). Put shortly:
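Percent inhibition at 300 μM and 100 μM comes from the same inhibition curve of 32P uptake. Assay used oocytes expressing rat NaPi-2b after 2 days of culture.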

Structures are written as SMILES.

This is an account of results in patent US8134015B2, “Compound inhibiting in vivo phosphorous transport and medicine containing the same” (Kyowa Hakko Kirin Co., Ltd., priority 2003, dated 2012).

As to `CCN(CCO)Cc1ccc(C(=O)Nc2ccc(Cl)cc2C(=O)N/N=C/c2ccc(F)cc2)cc1` [Compound 433, N-[4-Chloro-2-(4-fluoro-benzylidene-hydrazinocarbonyl)-phenyl]-4-{[ethyl-(2-hydroxy-ethyl)-amino]-methyl}-benzamide], the IC50 – broadly, the point on the concentration scale where inhibition reaches its midpoint – worked out at 14.3 µM.

As to `CCN(CCO)Cc1ccc(C(=O)Nc2ccc(Cl)cc2C(=O)N/N=C/c2cccc(C)c2)cc1` [Compound 434, N-[4-Chloro-2-(3-methyl-benzylidene-hydrazinocarbonyl)-phenyl]-4-{[ethyl-(2-hydroxy-ethyl)-amino]-methyl}-benzamide], the IC50 stood at 7.78 µM.

For the compound `CCN(CCO)Cc1ccc(C(=O)Nc2ccc(Cl)cc2C(=O)N/N=C/c2ccc(C)cc2)cc1` [Compound 435, N-[4-Chloro-2-(4-methyl-benzylidene-hydrazinocarbonyl)-phenyl]-4-{[ethyl-(2-hydroxy-ethyl)-amino]-methyl}-benzamide], the IC50 stood at 7.65 µM.

For `CCN(CCO)Cc1ccc(C(=O)Nc2ccc(Cl)cc2C(=O)N/N=C/c2ccc(C)c(C)c2)cc1` [Compound 436, N-[4-Chloro-2-(3,4-dimethyl-benzylidene-hydrazinocarbonyl)-phenyl]-4-{[ethyl-(2-hydroxy-ethyl)-amino]-methyl}-benzamide], the IC50 is 8.36 µM.

Turning to `CCN(CCO)Cc1ccc(C(=O)Nc2ccc(Cl)cc2C(=O)N/N=C/c2ccc(Cl)c(C(F)(F)F)c2)cc1` [Compound 437, N-[4-Chloro-2-(4-chloro-3-trifluoromethyl-benzylidene-hydrazinocarbonyl)-phenyl]-4-{[ethyl-(2-hydroxy-ethyl)-amino]-methyl}-benzamide], the IC50 is less than 3 µM.

As for `CCN(CCO)Cc1ccc(C(=O)Nc2ccc(Cl)cc2C(=O)N/N=C/c2cccc(OC)c2)cc1` [Compound 438, N-[4-Chloro-2-(3-methoxy-benzylidene-hydrazinocarbonyl)-phenyl]-4-{[ethyl-(2-hydroxy-ethyl)-amino]-methyl}-benzamide], the IC50 was found to be 26.3 µM.

In the case of `CCN(CCO)Cc1ccc(C(=O)Nc2ccc(Cl)cc2C(=O)N/N=C/c2ccc(OC)cc2)cc1` [Compound 439, N-[4-Chloro-2-(4-methoxy-benzylidene-hydrazinocarbonyl)-phenyl]-4-{[ethyl-(2-hydroxy-ethyl)-amino]-methyl}-benzamide], the IC50 amounted to 28.7 µM.

Regarding `CCN(CCO)Cc1ccc(C(=O)Nc2ccc(Cl)cc2C(=O)N/N=C/c2cccc(O)c2)cc1` [Compound 440, N-[4-Chloro-2-(3-hydroxy-benzylidene-hydrazinocarbonyl)-phenyl]-4-{[ethyl-(2-hydroxy-ethyl)-amino]-methyl}-benzamide], the IC50 is 32.4 µM.

For `CCN(CCO)Cc1ccc(C(=O)Nc2ccc(Cl)cc2C(=O)N/N=C/c2ccc(O)cc2)cc1` [Compound 441, N-[4-Chloro-2-(4-hydroxy-benzylidene-hydrazinocarbonyl)-phenyl]-4-{[ethyl-(2-hydroxy-ethyl)-amino]-methyl}-benzamide], the IC50 amounted to 40.1 µM.

On to `CN(C)CCn1nnnc1SCc1cccc(C(=O)Nc2ccc(Cl)cc2C(=O)N/N=C/c2cccc(F)c2)c1` [Compound 462, N-[4-Chloro-2-(3-fluoro-benzylidene-hydrazinocarbonyl)-phenyl]-3-[1-(2-dimethylamino-ethyl)-1H-tetrazol-5-ylsulfanylmethyl]-benzamide], for which the IC50 was less than 3 µM.

With `CN(C)CCn1nnnc1SCc1cccc(C(=O)Nc2ccc(Cl)cc2C(=O)N/N=C/c2ccc(F)cc2)c1` [Compound 463, N-[4-Chloro-2-(4-fluoro-benzylidene-hydrazinocarbonyl)-phenyl]-3-[1-(2-dimethylamino-ethyl)-1H-tetrazol-5-ylsulfanylmethyl]-benzamide], the IC50 was determined as 4.44 µM.

Take `Cc1cccc(/C=N/NC(=O)c2cc(Cl)ccc2NC(=O)c2cccc(CSc3nnnn3CCN(C)C)c2)c1` [Compound 464, N-[4-Chloro-2-(3-methyl-benzylidene-hydrazinocarbonyl)-phenyl]-3-[1-(2-dimethylamino-ethyl)-1H-tetrazol-5-ylsulfanylmethyl]-benzamide]: the IC50 came to 5 µM.

On to `Cc1ccc(/C=N/NC(=O)c2cc(Cl)ccc2NC(=O)c2cccc(CSc3nnnn3CCN(C)C)c2)cc1` [Compound 465, N-[4-Chloro-2-(4-methyl-benzylidene-hydrazinocarbonyl)-phenyl]-3-[1-(2-dimethylamino-ethyl)-1H-tetrazol-5-ylsulfanylmethyl]-benzamide], for which the IC50 worked out at 7.43 µM.

`Cc1ccc(/C=N/NC(=O)c2cc(Cl)ccc2NC(=O)c2cccc(CSc3nnnn3CCN(C)C)c2)cc1C` [Compound 466, N-[4-Chloro-2-(3,4-dimethyl-benzylidene-hydrazinocarbonyl)-phenyl]-3-[1-(2-dimethylamino-ethyl)-1H-tetrazol-5-ylsulfanylmethyl]-benzamide]: the concentration for half-maximal inhibition (IC50) was less than 3 µM.

Regarding `CN(C)CCn1nnnc1SCc1cccc(C(=O)Nc2ccc(Cl)cc2C(=O)N/N=C/c2ccc(Cl)c(C(F)(F)F)c2)c1` [Compound 467, N-[4-Chloro-2-(4-chloro-3-trifluoromethyl-benzylidene-hydrazinocarbonyl)-phenyl]-3-[1-(2-dimethylamino-ethyl)-1H-tetrazol-5-ylsulfanylmethyl]-benzamide], the IC50 was 7.94 µM.

As to `COc1cccc(/C=N/NC(=O)c2cc(Cl)ccc2NC(=O)c2cccc(CSc3nnnn3CCN(C)C)c2)c1` [Compound 468, N-[4-Chloro-2-(3-methoxy-benzylidene-hydrazinocarbonyl)-phenyl]-3-[1-(2-dimethylamino-ethyl)-1H-tetrazol-5-ylsulfanylmethyl]-benzamide], the IC50 came to 22.4 µM.

With `COc1ccc(/C=N/NC(=O)c2cc(Cl)ccc2NC(=O)c2cccc(CSc3nnnn3CCN(C)C)c2)cc1` [Compound 469, N-[4-Chloro-2-(4-methoxy-benzylidene-hydrazinocarbonyl)-phenyl]-3-[1-(2-dimethylamino-ethyl)-1H-tetrazol-5-ylsulfanylmethyl]-benzamide], the IC50 came out at 33.2 µM.

On to `CN(C)CCn1nnnc1SCc1cccc(C(=O)Nc2ccc(Cl)cc2C(=O)N/N=C/c2cccc(O)c2)c1` [Compound 470, N-[4-Chloro-2-(3-hydroxy-benzylidene-hydrazinocarbonyl)-phenyl]-3-[1-(2-dimethylamino-ethyl)-1H-tetrazol-5-ylsulfanylmethyl]-benzamide], for which the IC50 is 23.5 µM.

Turning to `CN(C)CCn1nnnc1SCc1cccc(C(=O)Nc2ccc(Cl)cc2C(=O)N/N=C/c2ccc(O)cc2)c1` [Compound 471, N-[4-Chloro-2-(4-hydroxy-benzylidene-hydrazinocarbonyl)-phenyl]-3-[1-(2-dimethylamino-ethyl)-1H-tetrazol-5-ylsulfanylmethyl]-benzamide], testing at 300 µM (phosphate uptake, oocytes expressing rat NaPi-2b, 300 μM, determined from inhibition curve) gave an inhibition of 51%.

Consider `CCN(CC)CCN(C)Cc1cccc(C(=O)Nc2ccc(I)cc2C(=O)N/N=C/c2cccc(F)c2)c1` [Compound 472, 3-{[(2-Diethylamino-ethyl)-methyl-amino]-methyl}-N-[2-(3-fluoro-benzylidene-hydrazinocarbonyl)-4-iodo-phenyl]-benzamide], for which the IC50 was less than 3 µM.

Consider `CCN(CC)CCN(C)Cc1cccc(C(=O)Nc2ccc(I)cc2C(=O)N/N=C/c2ccc(F)cc2)c1` [Compound 473, 3-{[(2-Diethylamino-ethyl)-methyl-amino]-methyl}-N-[2-(4-fluoro-benzylidene-hydrazinocarbonyl)-4-iodo-phenyl]-benzamide], for which the IC50 is less than 3 µM.

For the compound `CCN(CC)CCN(C)Cc1cccc(C(=O)Nc2ccc(I)cc2C(=O)N/N=C/c2cccc(C)c2)c1` [Compound 474, 3-{[(2-Diethylamino-ethyl)-methyl-amino]-methyl}-N-[4-iodo-2-(3-methyl-benzylidene-hydrazinocarbonyl)-phenyl]-benzamide], the IC50 was less than 3 µM.

`CCN(CC)CCN(C)Cc1cccc(C(=O)Nc2ccc(I)cc2C(=O)N/N=C/c2ccc(C)cc2)c1` [Compound 475, 3-{[(2-Diethylamino-ethyl)-methyl-amino]-methyl}-N-[4-iodo-2-(4-methyl-benzylidene-hydrazinocarbonyl)-phenyl]-benzamide]: the IC50 was less than 3 µM.

Take `CCN(CC)CCN(C)Cc1cccc(C(=O)Nc2ccc(I)cc2C(=O)N/N=C/c2ccc(C)c(C)c2)c1` [Compound 476, 3-{[(2-Diethylamino-ethyl)-methyl-amino]-methyl}-N-[2-(3,4-dimethyl-benzylidene-hydrazinocarbonyl)-4-iodo-phenyl]-benzamide]: the IC50 is less than 3 µM.

As for `CCN(CC)CCN(C)Cc1cccc(C(=O)Nc2ccc(I)cc2C(=O)N/N=C/c2ccc(Cl)c(C(F)(F)F)c2)c1` [Compound 477, N-[2-(4-chloro-3-trifluoromethyl-benzylidene-hydrazinocarbonyl)-4-iodo-phenyl]-3-{[(2-diethylamino-ethyl)-methyl-amino]-methyl}-benzamide], the IC50 was less than 3 µM.
